# In PubChem BioAssay (NCI):
# Several values for one entry are separate records, joined by “and”; a condition that tells them apart may be missing. Equal entries are not always repeated.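 Values below derive from 48-hour exposures of cells grown in 96-well plates, with endpoints linearly interpolated between the two concentrations bracketing the appropriate inhibition level. GI50: concentration for 50% inhibition of growth. TGI denotes the concentration required for complete inhibition of growth.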
# Assays:
# Test in all cases: NCI tumour cell line growth inhibition, 48 h
# COLO 205 colon = tested on: COLO 205 colon
# LOX IMVI melanoma = tested on: LOX IMVI melanoma
# UACC-62 melanoma = tested on: UACC-62 melanoma
# HCT-15 colon = tested on: HCT-15 colon
# HS 578T breast = tested on: HS 578T breast
# IGROV1 ovarian = tested on: IGROV1 ovarian
# A498 renal = tested on: A498 renal
# SF-268 CNS = tested on: SF-268 CNS
# SK-MEL-5 melanoma = tested on: SK-MEL-5 melanoma
# RXF 393 renal = tested on: RXF 393 renal
Structure (SMILES),TGI (COLO 205 colon),TGI (LOX IMVI melanoma),TGI (UACC-62 melanoma),TGI (HCT-15 colon),TGI (HS 578T breast),TGI (IGROV1 ovarian),TGI (A498 renal),TGI (SF-268 CNS),TGI (SK-MEL-5 melanoma),TGI (RXF 393 renal),GI50 (COLO 205 colon),GI50 (LOX IMVI melanoma),GI50 (UACC-62 melanoma),GI50 (HCT-15 colon),GI50 (HS 578T breast),GI50 (IGROV1 ovarian),GI50 (A498 renal),GI50 (SF-268 CNS),GI50 (SK-MEL-5 melanoma),GI50 (RXF 393 renal)
O=[N+]([O-])/C=C/c1cc2ccc3ccccc3c2[nH]1,4.29 µM,2.42 µM,3.51 µM,> 23.7 µM,22.2 µM,1.89 µM,3.16 µM,4.02 µM,3.26 µM,2.96 µM,–,–,–,–,–,–,–,–,–,–
O=C(O)c1ccc(C(=O)O)c(C(=O)O)c1.[NH-]C1CCCCC1[NH-].[Pt+2],40.7 µM,68.2 µM,36 µM,33.7 µM,84.5 µM,44.6 µM,45.1 µM,> 87.4 µM,14.5 µM,44.7 µM,3.73 µM,3.45 µM,2.82 µM,2.05 µM,13.5 µM,4.57 µM,6.28 µM,7.54 µM,1.43 µM,9.32 µM
Oc1ccc(Cc2ccc(O)c(C3CC(c4ccc(Cl)cc4)=NN3)c2)cc1C1CC(c2ccc(Cl)cc2)=NN1 (stereo unspecified),23.9 µM,12 µM,13.4 µM,> 35.8 µM,24.8 µM,> 72.3 µM,> 34.3 µM,27.2 µM,11.5 µM,> 38.8 µM,4.17 µM,2.22 µM,3.14 µM,2.26 µM,2.48 µM,3.69 µM,0.59 µM,3.32 µM,2.81 µM,3.48 µM
Cn1c(=O)c2[nH]c(CCCc3ccc([N+](=O)[O-])cc3)nc2n(C)c1=O,> 100 µM,> 100 µM,> 100 µM,> 100 µM,> 100 µM,> 100 µM,> 100 µM,> 100 µM,> 100 µM,> 100 µM,–,–,–,–,–,–,–,–,–,–
NC(=O)CCc1ccccc1Oc1nccc(-c2c(-c3ccc(F)cc3)ncn2C2CCNCC2)n1,> 25 µM,> 25 µM,> 25 µM,> 25 µM,> 25 µM,> 25 µM,> 25 µM,> 25 µM,> 25 µM,> 25 µM,> 25 µM,> 25 µM,> 25 µM,> 25 µM,> 25 µM,> 25 µM,> 25 µM,> 25 µM,> 25 µM,> 25 µM
C/C(=N/NC(=S)N1CC2CCC(CC2)C1)c1cnccn1,10.9 µM,11.4 µM,6.08 µM,16 µM,11.4 µM,2.62 µM,14.2 µM,11 µM,2.32 µM,7.78 µM,–,–,–,–,–,–,–,–,–,–
NCCCNc1nc2ccc(Cl)cc2c2c(=O)c3cc(F)ccc3sc12,8.91 µM,2.95 µM,8.41 µM,3.48 µM,17.7 µM,5.1 µM,21 µM,18.2 µM,30.2 µM,12.3 µM,2.71 µM,1.57 µM,2.83 µM,1.71 µM,3.22 µM,1.91 µM,6.1 µM,4.1 µM,13.6 µM,2.95 µM
COc1cc2c3c(n(CCCN4CCCNCC4)c(=O)c2cc1OC)-c1cc2c(cc1C3=O)OCO2,10.8 µM,0.886 µM,6.04 µM,6.74 µM,14.2 µM,21.5 µM,13.5 µM,11.2 µM,8.21 µM,11.5 µM,2.21 µM,0.165 µM,0.515 µM,1.09 µM,2.09 µM,1.15 µM,1.16 µM,0.758 µM,1.34 µM,2.53 µM
O=C(O)c1ccc(Oc2nc3ccccc3s2)cc1,> 100 µM,> 100 µM,> 100 µM,> 100 µM,> 100 µM,> 100 µM,> 100 µM,> 100 µM,> 100 µM,> 100 µM,–,–,–,–,–,–,–,–,–,–
CCN1C(=O)N(CC)C2C1NC(=S)N2/N=C/C=C/c1ccccc1OC (stereo unspecified),0.7 µM,> 100 µM,> 100 µM,> 100 µM,> 100 µM,> 100 µM,0.0888 µM,> 100 µM,0.158 µM,> 100 µM,0.0315 µM,0.0342 µM,0.0458 µM,0.0341 µM,0.0514 µM,0.0411 µM,0.0295 µM,0.0535 µM,0.0305 µM,0.0521 µM
NC(=N\N=C/c1ccc(Cl)cc1Cl)/C(N)=N\N=C/c1ccc(Cl)cc1Cl,> 100 µM,> 100 µM,> 100 µM,> 100 µM,> 30.4 µM,> 100 µM,8.37 µM,> 100 µM,> 100 µM,63.9 µM,46.2 µM,25.5 µM,> 69.2 µM,> 100 µM,3.39 µM,4 µM,2.21 µM,50.4 µM,> 100 µM,12.8 µM
CCCCCCc1cc2cc(-c3csc(/C=C/c4ccccc4)n3)c(=O)oc2cc1O,> 100 µM,12.8 µM,28.1 µM,> 100 µM,42.7 µM,38.3 µM,30.5 µM,28.9 µM,49.3 µM,15.1 µM,> 100 µM,3.29 µM,13.9 µM,5.53 µM,9 µM,15.9 µM,14.4 µM,11.6 µM,19.3 µM,3.71 µM
C=C(CN1CCN(c2ccccc2C(F)(F)F)CC1)c1ccc(C(=O)Nc2ccccc2N)cc1,45.9 µM,42.2 µM,> 93.7 µM,> 100 µM,> 100 µM,> 100 µM,31.8 µM,> 47 µM,9.83 µM,4.78 µM,11.5 µM,5.86 µM,9.16 µM,4.88 µM,12.8 µM,6.03 µM,5.36 µM,4.55 µM,3 µM,1.67 µM
O=C(/C=C/c1cccc(S(=O)(=O)Nc2ccccc2)c1)NO,–,1.62 µM and 10.2 µM,1.53 µM and 0.196 µM,> 48.9 µM and 68.5 µM,> 81.8 µM and 34.9 µM,4.43 µM and > 26.6 µM,1.34 µM and 1.12 µM,15.6 µM and 8.91 µM,1.03 µM and 0.192 µM,1.79 µM and 1.88 µM,0.353 µM and 0.118 µM,0.259 µM and 0.293 µM,–,1.08 µM and 1.29 µM,1.28 µM and 0.52 µM,0.623 µM and 0.116 µM,0.273 µM and 0.305 µM,1.22 µM and 0.324 µM,–,0.342 µM and 0.101 µM
O=Cc1ccc(-c2ccc(-c3ccc(C=O)o3)[se]2)o1,> 100 µM,> 100 µM,> 100 µM,> 100 µM,> 100 µM,> 100 µM,10.5 µM,> 100 µM,> 100 µM,> 100 µM,> 100 µM,> 100 µM,> 100 µM,> 80 µM,> 100 µM,> 65.9 µM,0.302 µM,> 95.4 µM,> 100 µM,55.8 µM
CS(=N)(=O)CCC(N)P(=O)(O)O (stereo unspecified),> 100 µM,> 100 µM,> 100 µM,> 100 µM,> 100 µM,> 100 µM,> 100 µM,> 100 µM,> 100 µM,> 100 µM,–,–,–,–,–,–,–,–,–,–
CCOC(=O)[C@@H](C)C[C@H](Cc1ccccc1)NC(=O)c1csc([C@@H](C[C@H](C(C)C)N(C)C(=O)[C@@H](NC(=O)[C@H]2C[C@H](O)CCN2C)C(C)C)OC(C)=O)n1,0.0143 µM,> 16.7 µM,> 16.7 µM,> 16.7 µM,> 16.7 µM,> 16.7 µM,0.0879 µM,> 16.7 µM,0.13 µM,–,< 0.00167 µM,0.00422 µM,< 0.00167 µM,0.149 µM,0.00906 µM,0.00209 µM,0.00721 µM,0.00881 µM,0.00175 µM,0.00955 µM
NS(=O)(=O)c1ccc(N=C2C(=O)Nc3ccccc32)cc1,98.4 µM,> 100 µM,> 100 µM,> 100 µM,> 100 µM,> 100 µM,> 100 µM,> 100 µM,> 100 µM,> 100 µM,–,–,–,–,–,–,–,–,–,–
COc1ccc(C2CC(c3ccc4ccccc4c3)=NN2c2nc(O)c(C3=c4cc(OC)ccc4=NC3=O)s2)cc1 (stereo unspecified),0.129 µM,0.127 µM,0.368 µM,1.09 µM,0.614 µM,0.388 µM,0.3 µM,0.241 µM,0.243 µM,0.0831 µM,0.0382 µM,0.0359 µM,0.121 µM,0.0973 µM,0.0418 µM,0.0641 µM,0.124 µM,0.0615 µM,0.0899 µM,0.0266 µM
FC(F)(F)c1ccc(-c2ncc(-c3ccc(C(F)(F)F)cc3)c(NCc3cc(C(F)(F)F)cc(C(F)(F)F)c3)n2)cc1,6.09 µM,26.2 µM,> 100 µM,> 100 µM,27.4 µM,> 100 µM,8.75 µM,> 100 µM,41.8 µM,74.9 µM,2.34 µM,3.4 µM,3.77 µM,3.74 µM,2.83 µM,9.02 µM,2.31 µM,3.98 µM,16.5 µM,4.73 µM
